# Experimental data taken from US12448369B2 (Edgewise Therapeutics, Inc., priority 2023, dated 2025).
# Key:
# [1] = test system: Porcine atria myofibrils (atrial myosin ATPase); assay: Myofibril ATPase assay, porcine atria myofibrils; format: biochemical; conditions: porcine atria myofibrils
# Method in brief: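 Values are Y75 (concentration cutting ATPase activity to 75% of vehicle) or Y125 (raising it to 125%), taken from 4-parameter logistic fits. Rates come from NADH disappearance at 340 nm in a PK/LDH-coupled assay with porcine atria myofibrils.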
# [2] = test system: Rabbit Psoas myofibrils (skeletal myosin ATPase); assay: Myofibril ATPase assay, rabbit psoas (skeletal) myofibrils; format: biochemical; conditions: rabbit psoas myofibrils
# Method in brief: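 Myofibrils homogenized in Triton X-100 buffer were assayed in pH 7.0 PIPES with defined Ca2+/EGTA. Myosin-driven ADP formation was coupled to NADH oxidation, with depletion monitored at 340 nm. Each value is the concentration that lowers activity to 75% of vehicle or, for activators, raises it to 125%.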
# [3] = target: T1, Porcine ventricle myofibrils (ventricular myosin ATPase) (Sus scrofa, UniProt P79293); assay: Myofibril ATPase assay, porcine ventricle myofibrils; format: biochemical, porcine (Yucatan minipigs); conditions: porcine ventricle myofibrils
# T1 construct: Myofibrils from porcine cardiac muscle was isolated from the left ventricle of Yucatan minipigs; tissue Exemplar Genetics; host or cells: left ventricle of Yucatan minipigs, myofibrils prepared in house
# T1 sequence (P79293 whole entry): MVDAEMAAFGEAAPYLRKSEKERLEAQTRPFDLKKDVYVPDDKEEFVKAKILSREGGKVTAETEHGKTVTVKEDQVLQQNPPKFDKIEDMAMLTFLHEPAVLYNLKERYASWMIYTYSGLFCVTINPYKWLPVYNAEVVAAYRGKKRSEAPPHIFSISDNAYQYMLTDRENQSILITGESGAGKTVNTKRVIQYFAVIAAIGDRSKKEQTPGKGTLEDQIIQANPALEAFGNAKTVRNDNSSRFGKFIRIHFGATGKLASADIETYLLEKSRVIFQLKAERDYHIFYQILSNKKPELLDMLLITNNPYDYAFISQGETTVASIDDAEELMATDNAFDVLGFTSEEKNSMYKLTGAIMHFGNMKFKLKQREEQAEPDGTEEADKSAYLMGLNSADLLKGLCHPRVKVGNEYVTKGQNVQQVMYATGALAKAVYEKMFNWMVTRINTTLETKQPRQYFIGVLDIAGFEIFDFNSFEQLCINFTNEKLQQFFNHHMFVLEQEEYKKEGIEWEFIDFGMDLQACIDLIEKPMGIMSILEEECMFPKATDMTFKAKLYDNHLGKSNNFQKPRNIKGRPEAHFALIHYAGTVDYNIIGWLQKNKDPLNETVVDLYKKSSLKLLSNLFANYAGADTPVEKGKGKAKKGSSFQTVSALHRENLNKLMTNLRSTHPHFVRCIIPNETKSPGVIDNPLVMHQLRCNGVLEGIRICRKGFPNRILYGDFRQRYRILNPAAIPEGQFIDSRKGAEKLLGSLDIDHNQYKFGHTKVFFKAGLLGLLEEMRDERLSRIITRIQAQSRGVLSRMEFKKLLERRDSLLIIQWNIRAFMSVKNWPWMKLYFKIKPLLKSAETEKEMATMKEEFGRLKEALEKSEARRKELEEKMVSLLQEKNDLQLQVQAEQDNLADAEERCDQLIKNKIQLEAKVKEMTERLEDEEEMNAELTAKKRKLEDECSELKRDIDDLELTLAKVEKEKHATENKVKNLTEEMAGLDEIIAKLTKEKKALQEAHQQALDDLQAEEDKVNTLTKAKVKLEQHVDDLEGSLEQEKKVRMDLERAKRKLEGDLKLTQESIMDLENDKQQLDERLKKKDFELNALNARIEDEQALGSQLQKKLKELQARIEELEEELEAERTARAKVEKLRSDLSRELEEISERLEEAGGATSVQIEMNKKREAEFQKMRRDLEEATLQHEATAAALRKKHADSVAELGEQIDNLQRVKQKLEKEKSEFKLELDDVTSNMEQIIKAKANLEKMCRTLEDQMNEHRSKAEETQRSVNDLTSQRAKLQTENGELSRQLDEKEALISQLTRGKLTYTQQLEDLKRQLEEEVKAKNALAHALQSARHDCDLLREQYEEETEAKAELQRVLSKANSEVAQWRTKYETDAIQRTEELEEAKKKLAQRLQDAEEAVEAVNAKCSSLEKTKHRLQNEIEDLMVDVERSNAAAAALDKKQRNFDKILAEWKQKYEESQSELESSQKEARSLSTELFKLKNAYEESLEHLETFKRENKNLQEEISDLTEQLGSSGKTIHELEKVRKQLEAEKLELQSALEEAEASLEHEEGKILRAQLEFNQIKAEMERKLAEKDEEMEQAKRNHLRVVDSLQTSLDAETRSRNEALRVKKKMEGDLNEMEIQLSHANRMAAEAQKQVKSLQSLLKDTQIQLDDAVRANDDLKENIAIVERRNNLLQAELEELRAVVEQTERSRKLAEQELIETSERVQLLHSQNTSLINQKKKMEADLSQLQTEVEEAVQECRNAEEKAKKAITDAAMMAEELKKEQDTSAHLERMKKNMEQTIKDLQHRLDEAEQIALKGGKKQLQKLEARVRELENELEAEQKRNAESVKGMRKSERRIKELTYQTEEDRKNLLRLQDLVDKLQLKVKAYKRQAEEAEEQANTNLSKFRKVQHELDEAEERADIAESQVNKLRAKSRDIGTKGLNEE
# Method in brief: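 Test compounds acted on myofibrils isolated from the left ventricle of Yucatan minipigs. ADP formation was coupled via pyruvate kinase/lactate dehydrogenase to NADH oxidation, monitored kinetically at 340 nm over 75 min. Rates relative to vehicle were fitted with a 4-parameter logistic model, reported as Y75 (25% inhibition) or Y125 (activation) concentrations.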
# [4] = Y75 value (75% activity relative to no compound)
# [5] = ‡ Y125 value, not a Y75 value (125% activity relative to no compound)
Compound,Atrial EC25 ([1]; Y75 value (no ‡ mark)) [µM],Skeletal EC25 ([2]; Y75 value (no ‡ mark)) [µM],Ventricular EC25 ([3]; Y75 value (no ‡ mark)) [µM],also measured
"C[C@H](NC(=O)[C@H](C)c1c(C(F)(F)F)c2cnccc2[nH]c1=O)c1ccc(F)cc1F (single isomer, unassigned) [compound 427]",,,,"Atrial EC25 [1, 4]: 2.53 µM; Skeletal EC25 ([2]; Y75 value): 2.02 µM; Ventricular EC25 ([3]; Y75 value): 22.60 µM"
"Cc1nccc2[nH]c(=O)c([C@H](C)C(=O)N[C@@H](C)c3ccc(F)cc3F)cc12 (single isomer, unassigned) [compound 442]",,,,"Atrial EC25 [1, 4]: 100.00 µM; Skeletal EC25 ([2]; Y75 value): 12.41 µM; Ventricular EC25 ([3]; Y75 value): 100.00 µM"
"C[C@H](NC(=O)[C@H](C)c1cc2cnccc2[nH]c1=O)c1ccc(F)cc1F (single isomer, unassigned) [compound 443]",,,,"Atrial EC25 [1, 4]: 100.00 µM; Skeletal EC25 ([2]; Y75 value): 1.34 µM; Ventricular EC25 ([3]; Y75 value): 100.00 µM"
"CCc1c(CC(=O)N[C@H](C)c2ncc(C#N)cn2)c(=O)[nH]c2ccc(F)c(C)c12 (single isomer, unassigned) [compound 2001]",0.33,0.27,0.49,
"CCc1c(CC(=O)N[C@@H](C)c2ncc(C#N)cn2)c(=O)[nH]c2ccc(F)c(C)c12 (single isomer, unassigned) [compound 2002]",0.29,0.11,0.21,
"C[C@@H](NC(=O)Cc1cc2c(C(F)(F)F)c(F)ccc2[nH]c1=O)c1ncc(C#N)cn1 (single isomer, unassigned) [compound 2009]",100.00,2.25,100.00,
"C[C@H](NC(=O)Cc1cc2c(C(F)(F)F)c(F)ccc2[nH]c1=O)c1ncc(C#N)cn1 (single isomer, unassigned) [compound 2010]",1.25,0.66,3.45,
"Cc1ccc2[nH]c(=O)c(CC(=O)N[C@H](C)c3ncc(C#N)cn3)cc2c1F (single isomer, unassigned) [compound 2013]",16.08,13.05,100.00,
"Cc1ccc2[nH]c(=O)c(CC(=O)N[C@@H](C)c3ncc(C#N)cn3)cc2c1F (single isomer, unassigned) [compound 2014]",100.00,100.00,,"Ventricular EC25 [3, 5]: 100.00‡ μM"
"Cc1c(CC(=O)N[C@H](C)c2ncc(C#N)cn2)c(=O)[nH]c2ccc(F)c(C#N)c12 (single isomer, unassigned) [compound 2015]",0.49,0.15,1.45,
"Cc1c(CC(=O)N[C@@H](C)c2ncc(C#N)cn2)c(=O)[nH]c2ccc(F)c(C#N)c12 (single isomer, unassigned) [compound 2016]",0.12,0.05,0.29,
"C[C@H](NC(=O)Cc1cc2c(C#N)c(F)ccc2[nH]c1=O)c1ncc(C#N)cn1 (single isomer, unassigned) [compound 2018]",,,,"Atrial EC25 [1, 5]: 100.00‡ μM; Skeletal EC25 [2, 5]: 100.00‡ μM; Ventricular EC25 [3, 5]: 100.00‡ μM"

# Second part, led by results:
Atrial EC25 ([1]; Y75 value (no ‡ mark)) [µM],Skeletal EC25 ([2]; Y75 value (no ‡ mark)) [µM],Ventricular EC25 ([3]; Y75 value (no ‡ mark)) [µM],Compound,also measured
1.48,41.80,100.00,"Cc1c(CC(=O)N[C@H](C)c2ncc(C#N)cn2)c(=O)[nH]c2ccc(C#N)cc12 (single isomer, unassigned) [compound 2027]",
100.00,,,"Cc1c(CC(=O)N[C@@H](C)c2ncc(C#N)cn2)c(=O)[nH]c2ccc(C#N)cc12 (single isomer, unassigned) [compound 2028]","Skeletal EC25 [2, 5]: 73.42‡ μM; Ventricular EC25 [3, 5]: 100.00‡ μM"
1.26,3.21,18.01,"C[C@@H](NC(=O)Cc1cc2cc(F)ccc2[nH]c1=O)c1ncc(C#N)cn1 (single isomer, unassigned) [compound 2029]",
100.00,24.12,100.00,"C[C@@H](NC(=O)Cc1cc2ccc(F)cc2[nH]c1=O)c1ncc(C#N)cn1 (single isomer, unassigned) [compound 2033]",
100.00,,100.00,"C[C@H](NC(=O)Cc1cc2ccc(F)cc2[nH]c1=O)c1ncc(C#N)cn1 (single isomer, unassigned) [compound 2034]","Skeletal EC25 [2, 5]: 100.00‡ μM"
2.19,5.70,38.21,"C[C@@H](NC(=O)Cc1cc2cc(F)c(F)cc2[nH]c1=O)c1ncc(C#N)cn1 (single isomer, unassigned) [compound 2035]",
100.00,100.00,100.00,"C[C@H](NC(=O)Cc1cc2cc(F)c(F)cc2[nH]c1=O)c1ncc(C#N)cn1 (single isomer, unassigned) [compound 2036]",
2.88,0.79,5.31,"C[C@@H](NC(=O)Cc1cc2c(C#N)cccc2[nH]c1=O)c1ncc(C#N)cn1 (single isomer, unassigned) [compound 2037]",
100.00,100.00,100.00,"C[C@H](NC(=O)Cc1cc2c(C#N)cccc2[nH]c1=O)c1ncc(C#N)cn1 (single isomer, unassigned) [compound 2038]",
1.18,100.00,1.50,"Cc1c(CC(=O)N[C@H](C)c2ncc(C#N)cn2)c(=O)[nH]c2cccc(F)c12 (single isomer, unassigned) [compound 2041]",
0.55,2.39,2.11,"Cc1c(CC(=O)N[C@@H](C)c2ncc(C#N)cn2)c(=O)[nH]c2cccc(F)c12 (single isomer, unassigned) [compound 2042]",
1.01,7.03,4.16,"Cc1c(CC(=O)N[C@H](C)c2ncc(C3COC3)cn2)c(=O)[nH]c2ccc(F)c(F)c12 (single isomer, unassigned) [compound 2043]",
9.19,29.36,5.84,"Cc1c(CC(=O)N[C@@H](C)c2ncc(C3COC3)cn2)c(=O)[nH]c2ccc(F)c(F)c12 (single isomer, unassigned) [compound 2044]",
25.33,30.48,47.78,"C[C@@H](NC(=O)Cc1c(C#N)c2cc(F)c(F)cc2[nH]c1=O)c1ccc(C#N)cn1 (single isomer, unassigned) [compound 2047]",
0.90,1.25,10.98,"C[C@H](NC(=O)Cc1c(C#N)c2cc(F)c(F)cc2[nH]c1=O)c1ccc(C#N)cn1 (single isomer, unassigned) [compound 2048]",
0.15,1.00,0.23,"Cc1c(CC(=O)N[C@H](C)c2ncc(C#N)cc2F)c(=O)[nH]c2ccc(Cl)cc12 (single isomer, unassigned) [compound 2049]",
